Results from patent US20240294467A1, “USP9X Inhibitors” (ProDeg, LLC, priority 2021, published 2024).

Each compound was assayed against USP9X (Homo sapiens (Human), UniProt Q93008) (assay: USP9X enzyme activity assay, ubiquitin-rhodamine110 substrate). Conditions: Table 8.
USP9X, sequence (Q93008 whole entry): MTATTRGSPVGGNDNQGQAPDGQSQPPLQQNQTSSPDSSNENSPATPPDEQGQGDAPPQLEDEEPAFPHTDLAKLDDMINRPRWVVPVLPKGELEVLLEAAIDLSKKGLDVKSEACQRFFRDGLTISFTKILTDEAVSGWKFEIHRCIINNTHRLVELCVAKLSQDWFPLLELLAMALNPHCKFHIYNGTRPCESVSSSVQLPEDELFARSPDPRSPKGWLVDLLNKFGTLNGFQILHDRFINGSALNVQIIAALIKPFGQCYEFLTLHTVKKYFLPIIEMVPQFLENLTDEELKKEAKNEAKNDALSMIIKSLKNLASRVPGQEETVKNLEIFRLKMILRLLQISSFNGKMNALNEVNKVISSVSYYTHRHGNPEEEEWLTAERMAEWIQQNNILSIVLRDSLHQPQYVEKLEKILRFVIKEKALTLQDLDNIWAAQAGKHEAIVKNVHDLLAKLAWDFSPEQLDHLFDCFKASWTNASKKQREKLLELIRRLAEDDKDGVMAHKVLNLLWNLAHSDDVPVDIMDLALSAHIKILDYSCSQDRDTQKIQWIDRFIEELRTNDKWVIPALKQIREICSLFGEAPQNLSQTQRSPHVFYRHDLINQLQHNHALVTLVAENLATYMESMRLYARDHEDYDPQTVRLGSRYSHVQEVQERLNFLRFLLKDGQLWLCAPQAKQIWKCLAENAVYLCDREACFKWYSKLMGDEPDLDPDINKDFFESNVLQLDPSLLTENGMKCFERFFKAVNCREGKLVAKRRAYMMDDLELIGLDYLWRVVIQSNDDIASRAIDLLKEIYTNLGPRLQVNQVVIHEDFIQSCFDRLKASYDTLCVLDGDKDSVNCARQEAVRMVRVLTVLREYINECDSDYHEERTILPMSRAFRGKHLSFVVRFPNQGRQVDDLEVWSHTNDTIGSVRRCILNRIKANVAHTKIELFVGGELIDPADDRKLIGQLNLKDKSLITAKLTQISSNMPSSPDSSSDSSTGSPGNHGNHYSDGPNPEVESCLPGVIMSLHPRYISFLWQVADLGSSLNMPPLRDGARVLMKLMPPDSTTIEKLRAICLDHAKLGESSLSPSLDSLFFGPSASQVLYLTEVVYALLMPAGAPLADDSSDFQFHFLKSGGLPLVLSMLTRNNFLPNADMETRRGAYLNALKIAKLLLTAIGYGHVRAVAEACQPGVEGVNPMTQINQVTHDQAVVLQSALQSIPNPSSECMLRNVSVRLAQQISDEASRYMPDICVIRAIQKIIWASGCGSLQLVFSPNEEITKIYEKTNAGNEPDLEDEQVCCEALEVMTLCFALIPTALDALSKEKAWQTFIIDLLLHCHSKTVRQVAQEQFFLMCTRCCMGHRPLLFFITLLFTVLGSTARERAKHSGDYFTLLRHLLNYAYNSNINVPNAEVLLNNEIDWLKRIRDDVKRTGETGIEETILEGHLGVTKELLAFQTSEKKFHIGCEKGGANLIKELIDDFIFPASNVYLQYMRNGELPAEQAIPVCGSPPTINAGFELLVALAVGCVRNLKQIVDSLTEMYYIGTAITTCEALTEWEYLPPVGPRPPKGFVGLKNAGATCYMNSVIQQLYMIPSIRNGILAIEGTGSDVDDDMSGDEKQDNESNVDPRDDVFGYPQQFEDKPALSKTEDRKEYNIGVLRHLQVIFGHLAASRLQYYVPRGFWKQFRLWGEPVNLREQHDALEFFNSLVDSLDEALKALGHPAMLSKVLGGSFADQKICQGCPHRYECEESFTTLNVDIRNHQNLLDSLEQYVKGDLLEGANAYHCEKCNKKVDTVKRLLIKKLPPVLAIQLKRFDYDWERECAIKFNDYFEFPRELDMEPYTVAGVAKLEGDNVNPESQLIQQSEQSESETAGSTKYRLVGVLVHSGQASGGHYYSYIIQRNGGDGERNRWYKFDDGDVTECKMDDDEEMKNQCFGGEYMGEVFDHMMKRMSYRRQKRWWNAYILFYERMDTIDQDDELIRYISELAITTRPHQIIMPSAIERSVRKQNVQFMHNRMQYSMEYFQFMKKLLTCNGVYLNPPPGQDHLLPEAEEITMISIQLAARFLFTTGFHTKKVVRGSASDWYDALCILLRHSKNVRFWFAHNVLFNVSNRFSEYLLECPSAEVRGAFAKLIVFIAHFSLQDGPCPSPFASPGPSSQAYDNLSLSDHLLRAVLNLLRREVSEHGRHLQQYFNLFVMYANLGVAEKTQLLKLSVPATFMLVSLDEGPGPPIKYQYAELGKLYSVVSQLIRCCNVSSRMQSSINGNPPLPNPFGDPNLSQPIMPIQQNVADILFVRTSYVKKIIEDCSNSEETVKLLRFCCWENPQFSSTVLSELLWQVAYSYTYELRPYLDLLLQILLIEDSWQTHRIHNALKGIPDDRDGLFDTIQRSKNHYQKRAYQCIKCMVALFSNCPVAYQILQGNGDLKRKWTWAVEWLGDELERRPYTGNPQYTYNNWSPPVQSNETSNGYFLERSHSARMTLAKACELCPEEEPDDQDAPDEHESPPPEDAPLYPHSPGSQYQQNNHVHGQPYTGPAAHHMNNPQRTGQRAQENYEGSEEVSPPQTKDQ

**Q.** `CN(C)CCOc1ccc(C(=O)NCc2cccc(C(=O)N[C@@H](CC(C)(C)C)C(=O)NCc3ccccc3F)c2)cc1` [Compound 27] was tested. Which “USP9X IC50/UM” value did it give?
**A.** The value was over 50 UM.

**Q.** `CNCCOc1ccc(C(=O)NCc2cccc(C(=O)N[C@@H](CC(C)C)C(=O)Nc3ccc(CCC(=O)O)cc3)c2)cc1` [Compound 32] was tested. Which “USP9X IC50/UM” value did it give?
**A.** Its value is over 50 UM.

**Q.** With `CNCCOc1ccc(C(=O)NCc2cccc(C(=O)N[C@@H](C)C(=O)Nc3ccc(CCC(=O)O)cc3)c2)cc1` [Compound 33] as the compound, how does the “USP9X IC50/UM” value read?
**A.** Its value is over 50 UM.

**Q.** For `CC(C)(C)C[C@H](NC(=O)c1cccc(CNC(=O)c2ccc(OCCNC(=O)CC(C)(C)CC(=O)NCCc3ccc(N)cc3)cc2)c1)C(=O)O` [Compound 66], which “USP9X IC50/UM” value is on record?
**A.** Its value is over 50 UM.

Same assay, conditions: higher concentrations of compound (>10 μM)

**Q.** Which “reduction of USP9X activity” value does the source give for `CC(C)(C)C[C@@H]1NC(=O)c2cccc(c2)CNC(=O)c2ccc(cc2)OCCNC(=O)CCCCC(=O)N[C@H](C(=O)O)Cc2ccc(cc2)NC1=O` [Compound 4A] here?
**A.** Its value is “approximately 60%”.

**Q.** For `COCCNC(=O)[C@@H]1Cc2ccc(cc2)NC(=O)[C@H](CC(C)(C)C)NC(=O)c2cccc(c2)CNC(=O)c2ccc(cc2)OCCNC(=O)CC(C)(C)CC(=O)N1` [Compound 3A], which “reduction of USP9X activity” value is on record?
**A.** Its value is “approximately 60%”.

Same assay, conditions: read-out: USP9X IC50/UM; Table 8

**Q.** `CN(C)CCOc1ccc(C(=O)NCc2cccc(C(=O)N[C@@H](CC(C)(C)C)C(=O)NCc3ccccn3)c2)cc1` [Compound 28] was tested. Which IC50 did it give?
**A.** Its IC50 is 32000 nM.

**Q.** How did the IC50 turn out when `CN(C)CCOc1ccc(C(=O)NCc2cccc(C(=O)N[C@@H](CC(C)(C)C)C(=O)Nc3cccc(Cn4cccn4)c3)c2)cc1` [Compound 9] was run?
**A.** Its IC50 is 150 nM.

**Q.** Which IC50 does the source give for `COC(=O)c1cccc(NC(=O)[C@H](CC(C)(C)C)NC(=O)c2cccc(CNC(=O)c3ccc(OCCN(C)C)cc3)c2)c1` [Compound 25] here?
**A.** The IC50 was 68 nM.

**Q.** With `CC(C)(C)C[C@H](NC(=O)c1cc(CNC(=O)c2ccccc2)ccc1F)C(=O)Nc1ccc(CCC(=O)O)cc1` [Compound 58] as the compound, how does the IC50 read?
**A.** Its IC50 is 4900 nM.

**Q.** With `Cc1ccc(NC(=O)[C@H](CC(C)(C)C)NC(=O)c2cccc(CNC(=O)c3ccc(OCCN(C)C)cc3)c2)cc1` [Compound 22] as the compound, how does the IC50 read?
**A.** Its IC50 is 420 nM.

**Q.** `CC(=O)NCc1cccc(C(=O)N[C@@H](CC(C)(C)C)C(=O)Nc2ccc(CCNC(=O)CC(C)(C)CC(=O)NCCOc3ccc(C(=O)O)cc3)cc2)c1` [Compound 73] was tested. Which IC50 did it give?
**A.** Its IC50 is 15000 nM.

**Q.** Which IC50 does the source give for `CNC(=O)CCc1ccc(NC(=O)[C@H](CC(C)(C)C)NC(=O)c2cc(CNC(C)=O)ccc2F)cc1` [Compound 49] here?
**A.** Its IC50 is 5000 nM.

**Q.** `COc1ccc(C(=O)NCc2cccc(C(=O)N[C@@H](CC(C)(C)C)C(=O)Nc3ccc(CCN(C)C)cc3)c2)cc1` [Compound 44] was tested. Which IC50 did it give?
**A.** Its IC50 is 240 nM.

**Q.** `CNC(=O)CCc1ccc(NC(=O)[C@H](CC(C)(C)C)NC(=O)c2cccc(CNC(=O)c3ccccc3)c2)cc1` [Compound 45] was tested. Which IC50 did it give?
**A.** The IC50 was 2100 nM.

**Q.** How did the IC50 turn out when `COc1ccc(NC(=O)[C@H](CC(C)(C)C)NC(=O)c2cccc(CNC(=O)c3ccc(OCCN(C)C)cc3)c2)cc1` [Compound 23] was run?
**A.** Its IC50 is 240 nM.

**Q.** Which IC50 does the source give for `CNCCOc1ccc(C(=O)NCc2cccc(C(=O)N[C@@H](CC(C)(C)C)C(=O)Nc3ccc(CCNC(=O)CC(C)(C)CC(=O)O)cc3)c2)cc1` [Compound 2] here?
**A.** The IC50 was 180 nM.

**Q.** `CN(C)CCOc1ccc(C(=O)NCc2cccc(C(=O)N[C@@H](CC(C)(C)C)C(=O)Nc3ccc4nccn4c3)c2)cc1` [Compound 20] was tested. Which IC50 did it give?
**A.** Its IC50 is 63 nM.

**Q.** `CC(C)(C)CC(=O)NCCc1ccc(NC(=O)[C@H](CC(C)(C)C)NC(=O)c2cccc(CNC(=O)c3ccc(OCCO)cc3)c2)cc1` [Compound 65] was tested. Which IC50 did it give?
**A.** Its IC50 is 600 nM.

**Q.** With `CNC(=O)CCc1ccc(NC(=O)[C@H](CC(C)(C)C)NC(=O)c2cc(CNC(=O)c3ccc(OCCN(C)C)cc3)ccc2F)cc1` [Compound 41] as the compound, how does the IC50 read?
**A.** Its IC50 is 90 nM.

**Q.** How did the IC50 turn out when `CNC(=O)CCc1ccc(NC(=O)[C@H](CC(C)(C)C)NC(=O)c2cc(CNC(=O)c3ccc(OC)cc3)ccc2F)cc1` [Compound 43] was run?
**A.** The IC50 was 760 nM.

**Q.** With `CNCCOc1ccc(C(=O)NCc2cccc(C(=O)N[C@@H](CC(C)(C)C)C(=O)Nc3ccc(CC(NC(=O)CC(C)(C)CC(=O)O)C(=O)OC)cc3)c2)cc1` (some centres unmarked) [Compound 1] as the compound, how does the IC50 read?
**A.** The IC50 was 530 nM.

Same assay, conditions: ubiquitin-rhodamine110 substrate

**Q.** How did the “effect on USP9X activity” value turn out when ubiquitin aldehyde [reference compound] was run?
**A.** The value was “completely abolished”.
